Assay [1] deals with Puccinia recondita f. Sp. Tritici. Put plainly: Puccinia recondita f. sp. tritici / wheat / leaf disc preventative (brown rust). The assay is classed as in vivo. The following applies: foliar, read-out: disease control compared to untreated control leaf disks. On the procedure:
(§1) Leaf disks or leaf segments of various plant species are cut from plants grown in a greenhouse. The cut leaf disks or segments are placed in multiwell plates (24-well format) onto water agar. The leaf disks are sprayed with a test solution before (preventative) or after (curative) inoculation. Compounds to be tested are prepared as DMSO solutions (max. 10 mg/mL) which are diluted to the appropriate concentration with 0.025% Tween20 just before spraying. The inoculated leaf disks or segments are incubated under defined conditions (temperature, relative humidity, light, etc.) according to the respective test system. A single evaluation of disease level is carried out 3 to 14 days after inoculation, depending on the pathosystem. Percent disease control relative to the untreated check leaf disks or segments is then calculated.
Example 1: Fungicidal Activity Against Puccinia recondita f. Sp. Tritici/Wheat/Leaf Disc Preventative (Brown Rust)
Wheat leaf segments cv. Kanzler were placed on agar in multiwell plates (24-well format) and sprayed with the formulated test compound diluted in water. The leaf disks were inoculated with a spore suspension of the fungus 1 day after application. The inoculated leaf segments were incubated at 19° C. and 75% relative humidity (rh) under a light regime of 12 hours light/12 hours darkness in a climate cabinet and the activity of a compound was assessed as percent disease control compared to untreated when an appropriate level of disease damage appears in untreated check leaf segments (7 to 9 days after application).
(§2) The following compounds at 200 ppm in the applied formulation give at least 80% disease control in this test when compared to untreated control leaf disks under the same conditions, which show extensive disease development.

Assay [2] has the same test system. In words: Puccinia recondita f. sp. tritici / wheat / leaf disc curative (brown rust). The class given is in vivo. The following applies: foliar, 200 ppm in the applied formulation, wheat leaf segments, curative (applied 1 day after inoculation), assessed 6 to 8 days after application, read-out: disease control compared to untreated control leaf disks. How it is done: as §1
Example 2: Fungicidal Activity Against Puccinia recondita f. Sp. Tritici/Wheat/Leaf Disc Curative (Brown Rust)
Wheat leaf segments cv. Kanzler are placed on agar in multiwell plates (24-well format). The leaf segments are then inoculated with a spore suspension of the fungus. Plates were stored in darkness at 19° C. and 75% relative humidity. The formulated test compound diluted in water was applied 1 day after inoculation. The leaf segments were incubated at 19° C. and 75% relative humidity under a light regime of 12 hours light/12 hours darkness in a climate cabinet and the activity of a compound was assessed as percent disease control compared to untreated when an appropriate level of disease damage appears in untreated check leaf segments (6 to 8 days after application).
as §2

For assay [3], the system named is Glomerella lacenarium (Colletotrichum lacenarium). Put plainly: Glomerella lacenarium (Colletotrichum lacenarium) liquid culture / cucumber / preventative (anthracnose). The class given is cell-based. The following applies: read-out: disease control (inhibition of growth, photometric) compared to untreated control. How it is done: Mycelia fragments or conidia suspensions of a fungus prepared either freshly from liquid cultures of the fungus or from cryogenic storage, are directly mixed into nutrient broth. DMSO solutions of the test compound (max. 10 mg/ml) are diluted with 0.025% Tween20 by a factor of 50 and 10 μL of this solution is pipetted into a microtiter plate (96-well format). The nutrient broth containing the fungal spores/mycelia fragments is then added to give an end concentration of the tested compound. The test plates are incubated in the dark at 24° C. and 96% relative humidity. The inhibition of fungal growth is determined photometrically after 2 to 7 days, depending on the pathosystem, and percent antifungal activity relative to the untreated check is calculated.
Example 4: Fungicidal Activity Against Glomerella lacenarium (Colletotrichum lacenarium) Liquid Culture/Cucumber/Preventative (Anthracnose)
Conidia of the fungus from cryogenic storage are directly mixed into nutrient broth (PDB—potato dextrose broth). After placing a (DMSO) solution of test compound into a microtiter plate (96-well format), the nutrient broth containing the fungal spores is added. The test plates are incubated at 24° C. and the inhibition of growth is measured photometrically 3 to 4 days after application.
The following compounds at 20 ppm in the applied formulation give at least 80% disease control in this test when compared to untreated control under the same conditions, which show extensive disease development.

[4] abbreviates: 200 ppm in the applied formulation, wheat leaf segments, preventative, assessed 7 to 9 days after application.
The mark [5] stands for this setting: 20 ppm in the applied formulation, liquid culture in PDB, 24° C., 3 to 4 days after application.

Molecules are shown by their SMILES. Read-outs that look alike come from different tables or passages of the source.

For orientation: inhibition means the percentage by which the read-out fell short of the control. Regarding `CCC(=O)C(=O)NCc1ccc(-c2noc(C(F)(F)F)n2)cc1C` [Compound 1.85, N-[[2-methyl-4-[5-(trifluoromethyl)-1,2,4-oxadiazol-3-yl]phenyl]methyl]-2-oxo-butanamide], the pest or weed control at 200 ppm in assay [1] (setting [4]) and in assay [2] was no less than 80% each time. For the same compound, the inhibition at 20 ppm in assay [3] (setting [5]) was no less than 80%.
Consider `CC(=O)C(=O)N(Cc1ccc(-c2noc(C(F)(F)F)n2)cc1)CC1CCCO1` (stereo not drawn) [Compound 1.14, 2-oxo-N-(tetrahydrofuran-2-ylmethyl)-N-[[4-[5-(trifluoromethyl)-1,2,4-oxadiazol-3-yl]phenyl]methyl]propanamide], for which the pest or weed control at 200 ppm in assay [1] (setting [4]) and in assay [2] was no less than 80% in each case. The inhibition at 20 ppm in assay [3] (setting [5]) was no less than 80%.
For `CONC(=O)C(=O)N(C)Cc1ccc(-c2noc(C(F)(F)F)n2)cc1` [Compound 4.102, N-methoxy-N′-methyl-N′-[[4-[5-(trifluoromethyl)-1,2,4-oxadiazol-3-yl]phenyl]methyl] oxamide], the pest or weed control at 200 ppm in assay [1] (setting [4]) and in assay [2] was no less than 80% in each case. In assay [3] (setting [5]), the inhibition at 20 ppm was no less than 80%.
Consider `CC(C)NC(=O)C(=O)NCc1ccc(-c2noc(C(F)(F)F)n2)cc1` [Compound 4.46, N′-isopropyl-N-[[4-[5-(trifluoromethyl)-1,2,4-oxadiazol-3-yl]phenyl]methyl] oxamide], for which the pest or weed control at 200 ppm in assay [1] (setting [4]) and in assay [2] was no less than 80% each time. In addition, in assay [3] (setting [5]), the inhibition at 20 ppm is no less than 80%.
`CNC(=O)C(=O)N(Cc1ccc(-c2noc(C(F)(F)F)n2)cc1)C1CC1` [Compound 4.100, N′-cyclopropyl-N-methyl-N′-[[4-[5-(trifluoromethyl)-1,2,4-oxadiazol-3-yl]phenyl]methyl] oxamide]: the pest or weed control at 200 ppm in assay [1] (setting [4]) and in assay [2] was no less than 80% throughout. Moreover, the inhibition at 20 ppm in assay [3] (setting [5]) is no less than 80%.
For the compound `CCNC(=O)C(=O)N(Cc1ccc(-c2noc(C(F)(F)F)n2)cc1)OC` [Compound 4.66, N-ethyl-N′-methoxy-N′-[[4-[5-(trifluoromethyl)-1,2,4-oxadiazol-3-yl]phenyl]methyl] oxamide], the pest or weed control at 200 ppm in assay [1] (setting [4]) and in assay [2] was no less than 80% in each case. For the same compound, in assay [3] (setting [5]), the inhibition at 20 ppm was no less than 80%.
On to `CON=C(C(=O)N(Cc1ccc(-c2noc(C(F)(F)F)n2)cc1)OC)c1ccccc1` [Compound 2.4, N-methoxy-2-methoxyimino-2-phenyl-N-[[4-[5-(trifluoromethyl)-1,2,4-oxadiazol-3-yl]phenyl]methyl]acetamide], for which the pest or weed control at 200 ppm in assay [1] (setting [4]) was no less than 80%. For the same compound, in assay [3] (setting [5]), the inhibition at 20 ppm was no less than 80%.
As to `COCCN(Cc1ccccc1)C(=O)C(=O)Nc1ccc(-c2noc(C(F)(F)F)n2)cc1` [Compound 4.15], the pest or weed control at 200 ppm in assay [1] (setting [4]) was no less than 80%. In assay [3] (setting [5]), the inhibition at 20 ppm was no less than 80%.
For the compound `CC(C)(CS(C)(=O)=O)NC(=O)C(=O)Nc1ccc(-c2noc(C(F)(F)F)n2)cc1` [Compound 4.17], the pest or weed control at 200 ppm in assay [1] (setting [4]) and in assay [2] was no less than 80% each time.
Turning to `NC(=O)C(=O)N(Cc1ccc(-c2noc(C(F)(F)F)n2)cc1)OCC=C(Cl)Cl` [Compound 4.32, N′-(3,3-dichloroallyloxy)-N′-[[4-[5-(trifluoromethyl)-1,2,4-oxadiazol-3-yl]phenyl]methyl] oxamide], the pest or weed control at 200 ppm in assay [1] (setting [4]) is no less than 80%. For the same compound, in assay [3] (setting [5]), the inhibition at 20 ppm is no less than 80%.
With `CO/N=C(\C#N)C(=O)N(Cc1ccc(-c2noc(C(F)(F)F)n2)cc1)C1CC1` [Compound 2.15, (1E)-2-[cyclopropyl-[[4-[5-(trifluoromethyl)-1,2,4-oxadiazol-3-yl]phenyl]methyl]amino]-N-methoxy-2-oxo-acetimidoyl cyanide], the pest or weed control at 200 ppm in assay [1] was no less than 80%. In addition, in assay [3], the inhibition at 20 ppm is no less than 80%.
Consider `CON(Cc1ccc(-c2noc(C(F)(F)F)n2)cc1)C(=O)C(=O)O` [Compound 3.7, 2-[methoxy-[[4-[5-(trifluoromethyl)-1,2,4-oxadiazol-3-yl]phenyl]methyl]amino]-2-oxo-acetic acid], for which the pest or weed control at 200 ppm in assay [2] is no less than 80%. Further, the inhibition at 20 ppm in assay [3] (setting [5]) was no less than 80%.
On to `CON(Cc1ccc(-c2noc(C(F)(F)F)n2)cc1)C(=O)C(=O)Nc1ccccc1` [Compound 4.70, N′-methoxy-N-phenyl-N′-[[4-[5-(trifluoromethyl)-1,2,4-oxadiazol-3-yl]phenyl]methyl] oxamide], for which the pest or weed control at 200 ppm in assay [1] (setting [4]) is no less than 80%. For the same compound, in assay [3] (setting [5]), the inhibition at 20 ppm is no less than 80%.
For the compound `CCCC(=O)C(=O)N(Cc1ccc(-c2noc(C(F)(F)F)n2)cc1)CC1CCCO1` (stereo not drawn) [Compound 1.13, 2-oxo-N-(tetrahydrofuran-2-ylmethyl)-N-[[4-[5-(trifluoromethyl)-1,2,4-oxadiazol-3-yl]phenyl]methyl]pentanamide], the pest or weed control at 200 ppm in assay [1] (setting [4]) was no less than 80%. The inhibition at 20 ppm in assay [3] (setting [5]) was no less than 80%.
On to `CN(C)C(=O)C(=O)Nc1ccc(-c2noc(C(F)(F)F)n2)cn1` [Compound 4.10, N′,N′-dimethyl-N-[5-[5-(trifluoromethyl)-1,2,4-oxadiazol-3-yl]-2-pyridyl] oxamide], for which the pest or weed control at 200 ppm in assay [1] (setting [4]) and in assay [2] was no less than 80% in each case.
`C=CCNC(=O)C(=O)NCc1ccc(-c2noc(C(F)(F)F)n2)cc1` [Compound 4.57, N-allyl-N′-[[4-[5-(trifluoromethyl)-1,2,4-oxadiazol-3-yl]phenyl]methyl] oxamide]: the pest or weed control at 200 ppm in assay [1] (setting [4]) was no less than 80%. Besides, the inhibition at 20 ppm in assay [3] (setting [5]) was no less than 80%.
As for `CC(=O)C(=O)N(Cc1ccc(-c2noc(C(F)(F)F)n2)cc1)OCC=C(Cl)Cl` [Compound 1.22, N-(3,3-dichloro-allyloxy)-2-oxo-N-[[4-[5-(trifluoromethyl)-1,2,4-oxadiazol-3-yl]phenyl]methyl]propanamide], the pest or weed control at 200 ppm in assay [1] (setting [4]) is no less than 80%. Further, in assay [3] (setting [5]), the inhibition at 20 ppm was no less than 80%.
Regarding `CC(C)CC(=O)C(=O)NCc1c(F)cc(-c2noc(C(F)(F)F)n2)cc1F` [Compound 1.69, N-[[2,6-difluoro-4-[5-(trifluoromethyl)-1,2,4-oxadiazol-3-yl]phenyl]methyl]-4-methyl-2-oxo-pentanamide], in assay [1] (setting [4]), the pest or weed control at 200 ppm is no less than 80%. The inhibition at 20 ppm in assay [3] (setting [5]) is no less than 80%.
`CON(Cc1ccc(-c2noc(C(F)(F)F)n2)cc1)C(=O)C(=O)NC1CCCC1` [Compound 4.79, N-cyclopentyl-N′-methoxy-N′-[[4-[5-(trifluoromethyl)-1,2,4-oxadiazol-3-yl]phenyl]methyl] oxamide]: in assay [1] (setting [4]), the pest or weed control at 200 ppm was no less than 80%. In addition, the inhibition at 20 ppm in assay [3] (setting [5]) was no less than 80%.
On to `CN(C)C(=O)C(=O)N(Cc1ccc(-c2noc(C(F)(F)F)n2)cc1)OCC=C(Cl)Cl` [Compound 4.31, N′-(3,3-dichloroallyloxy)-N,N-dimethyl-N′-[[4-[5-(trifluoromethyl)-1,2,4-oxadiazol-3-yl]phenyl]methyl] oxamide], for which the pest or weed control at 200 ppm in assay [1] (setting [4]) was no less than 80%. For the same compound, the inhibition at 20 ppm in assay [3] (setting [5]) was no less than 80%.
Consider `CCNC(=O)C(=O)NCc1ccc(-c2noc(C(F)(F)F)n2)cc1` [Compound 4.49, N-ethyl-N′-[[4-[5-(trifluoromethyl)-1,2,4-oxadiazol-3-yl]phenyl]methyl] oxamide], for which the pest or weed control at 200 ppm in assay [1] (setting [4]) is no less than 80%. In addition, the inhibition at 20 ppm in assay [3] (setting [5]) was no less than 80%.

These data come from US20180370927A1, “MICROBIOCIDAL OXADIAZOLE DERIVATIVES” (SYNGENTA PARTICIPATIONS AG, priority 2015, published 2018).
